A melting point compilation (Tetko et al.; mined from patent text by program, amines drawn as free bases though some values may be those of a salt)

Work on `CCN1CN(C)C(=S)N(c2cc(Cl)ccc2C)C1` yielded a melting point of 93 to 95 °C. `O=C(Cc1ccc(Cl)cc1Cl)c1ccncc1` gave a melting point of 77 °C. Work on `CCC(=O)Nc1ccc(C(=O)[C@H]2C[C@H]2C(=O)O)cc1` (relative stereo) yielded a melting point of 182 to 183 °C. For `CC1(C)C2CC=C(c3ccc(C(=O)N4Cc5cccn5Cc5ccccc54)cc3)C1C2` (stereo not given), the melting point was 118 to 119 °C. Compound `Cc1cc(C)n(Cc2ccc(Cl)c(Cl)c2)c(=O)c1C#N` has a melting point of 139 to 141 °C. With `CSc1ncc(S(=O)(=O)NC(=O)NC(C)C)c(Nc2cccc(C)c2)n1` the melting point was 160 °C. `Cc1cn(-c2cc(NC(=O)c3ccc(Cl)c(C#Cc4cnc(NC5CC5)nc4)c3)cc(C(F)(F)F)c2)cn1` showed a melting point of 163 to 165 °C. Compound `Nc1nc(=O)n(C(=O)OCc2ccccc2)cc1F` has a melting point of 212 to 215 °C. Compound `c1ccc(N=C2SCS2)nc1` has a melting point of 98.7 to 99.7 °C. In the case of `ON=C1c2ccccc2C2CC2c2ccccc21` (stereo not given), the melting point is reported as 201 °C. `CCC(=O)N(CC)c1ccc(C(=O)C=CN(C)C)cc1` gave a melting point of 75 to 77 °C. With `COc1cccc(C2=C(CC(C)N3CCCC3)C(=O)NCCC2)c1` (stereo not given) the melting point was 94 to 96 °C. `Cc1nc(N2CCc3ccccc3CC2)c(C#N)c(=O)n1C(F)F` showed a melting point of 143 °C. For `CC(C)CCSCC[C@H](O)[C@@H](N)CC(C)C`, the melting point was 64 to 65 °C. Work on `COc1cccc(N(C)C(=S)Oc2ccc3ccccc3c2)n1` yielded a melting point of 95.5 to 97 °C. `CC(C)(C)NCC(O)c1cc(Cl)c(NC(=O)NC(C)(C)C)c(Cl)c1` (stereo not given) showed a melting point of 167 to 169 °C. `CC(C)COc1ccc(F)cc1OCCOS(C)(=O)=O` gave a melting point of 53 to 55 °C. `COc1ccccc1NC1c2cc(NC(=O)CC(C)(C)C)c(C)c(C)c2OC1(C)C` (stereo not given) showed a melting point of 184 to 185 °C. With `CCOC1=Nc2ccc(Cl)cc2C(c2ccccc2Cl)=NC1OC` (stereo not given) the melting point was 110 to 113 °C. `O=c1cc(-c2ccc(OCc3ccccc3)c(OCc3ccccc3)c2)oc2cc(OCCBr)ccc12` gave a melting point of 167 to 168 °C. `Cc1c(CCc2ccc3nc(N)oc3c2)nc2cc(CN)ccn12` gave a melting point of 218 to 221 °C. With `CC(C)[C@H](NC(=O)/C=C/c1nccs1)C(=O)N[C@@H](Cc1ccccc1)[C@@H](O)[C@H](O)[C@H](Cc1ccccc1)NC(=O)[C@@H](NC(=O)/C=C/c1nccs1)C(C)C` the melting point was over 260 °C. With `Nc1ccc(Sc2ccc(Cl)cc2)nc1` the melting point was 55 to 57 °C. Work on `COc1ccc(Nc2ccncc2)c(C(=O)N2CCCCC2)c1` yielded a melting point of 176 to 178 °C. Compound `COC(=O)c1cc(NS(C)(=O)=O)ccc1F` has a melting point of 135 to 137 °C. Compound `C[C@@H](CO)Oc1cc(Oc2ccc(C(=O)N3CCC3)cc2F)cc(C(=O)Nc2ccn(C)n2)c1` has a melting point of 142 °C. Work on `O=C1CNN(Cc2ccc(Cl)cc2Cl)C(=O)N1` yielded a melting point of 167 °C. Compound `CC(C)(C)OC(=O)NC1C=CCC2C(=O)NC(=O)C12` (stereo not given) has a melting point of 158 to 160 °C. For `C=CCN1Cc2cncn2C(c2ccc(C#N)cc2)C1=O` (stereo not given), the melting point was 107 to 109 °C. With `NNc1nc(C(F)(F)F)nc(-c2ccc(F)cc2)c1-c1ccccc1` the melting point was 175 to 177 °C. With `NC(=O)c1cnn2c(-c3cccc(F)c3)ccnc12` the melting point was 247 to 249 °C. Compound `CCc1nc2cc(C(=O)O)c(Cl)cc2n1-c1ccc(CCNC(=O)NS(=O)(=O)c2ccc(C)cc2)cc1` has a melting point of 145 to 150 °C. `COC(=O)C(C)(C)N1CCC(N(Cc2ccc(-c3ccc(C(F)(F)F)cc3)cc2)C(=O)Cn2c(CCc3cccc(F)c3F)nc(=O)c3cccnc32)CC1` gave a melting point of 150 °C. `CCCCCCCCS(=O)(=O)c1ccc(C#N)c(C#N)c1` showed a melting point of 70 to 71 °C. `Cc1nc(NC(=O)Nc2ccc(N3CCN(C(=O)Nc4cc(OCCO)ccc4Cl)CC3)nc2)sc1C` showed a melting point of 128 to 129 °C. In the case of `CCC(N)(P(=O)(O)O)P(=O)(O)O`, the melting point is reported as 282 °C. `Brc1ccc(OCc2ccc3ccccc3n2)cc1` gave a melting point of 103 to 105 °C. Compound `Cc1nc(-c2nn(Cc3ccccc3)c3ccccc23)oc1CO` has a melting point of 127 to 129 °C. For `COC(=O)C1Cc2cc3c(cc2C(=O)CS1)OCO3` (stereo not given), the melting point was 165 to 166 °C. `CC1(C)Oc2ccc(Br)cc2C(Oc2ccc(O)nn2)C1(C)O` (stereo not given) showed a melting point of 242 °C. `CCOC(=O)Cc1ccc(-c2nc(CCl)c(C)o2)cc1` gave a melting point of 87 to 88 °C. Compound `Cc1cc(-c2ccc(C(F)(F)F)cc2)nc(-c2ccnc(-c3cccc(S(N)(=O)=O)c3)n2)c1` has a melting point of over 250 °C. In the case of `Nc1ccccc1-c1cc2ccc(Cl)cc2[nH]c1=O`, the melting point is reported as 155 to 157 °C. With `C#Cc1cccc(Nc2ncnc3ccc(-c4ccccc4C(=O)OCC)cc23)c1` the melting point was 174 to 177 °C. Compound `CN(C)C(=CC(=O)C(F)(F)F)NCc1ccc(Cl)nc1` has a melting point of 85 °C. `Nc1ccc(S(=O)(=O)Nc2cc(N)nc(S)n2)cc1` gave a melting point of 232 to 234 °C. Work on `Cc1cc(-c2ccc3c(=O)c(C(=O)O)cn(C4CC4)c3c2C)cnc1CO` yielded a melting point of 225 to 226 °C. Work on `CC(=O)Oc1ccc2c(c1)COC(C(Cl)(Cl)Cl)N2` (stereo not given) yielded a melting point of 155 to 157 °C. With `COC(=O)c1cn2c(C(F)(F)F)nnc2c2ccccc12` the melting point was 170 °C. Compound `O=C(N[C@H]1CC[C@H](CCN2CCC(c3cccc4c3CCO4)CC2)CC1)c1ccc2ncccc2c1` has a melting point of 238 °C. Work on `Cc1ccc(-c2c(NS(=O)(=O)c3ccc(C(C)(C)C)cc3)nc(NCCO)nc2OCCOCc2ccccc2)cc1` yielded a melting point of 124 to 126 °C. In the case of `COc1ccc(C(=O)OC2CC3C(=O)NC4(C(=O)NS(=O)(=O)C5CC5)CC4C=CCCCCCC(NC(=O)OC(C)(C)C)C(=O)N3C2)cc1` (stereo not given), the melting point is reported as 151 to 153 °C. `O=C(C(=O)c1ccc(Oc2cccc(Br)c2)cc1)c1ccccc1` gave a melting point of 75 to 76 °C. Compound `Cc1nc(C=Cc2nc3ccc(F)cc3c(=O)n2-c2cccnc2C)cs1` has a melting point of 223 to 224 °C. With `COc1ccc(N(c2ccc(C=Cc3ccc4ccc5cccc6ccc3c4c56)cc2)c2ccc(OC)cc2)cc1` the melting point was 160 °C. Compound `Cn1c(=O)n(CCCCI)c(=O)c2ccccc21` has a melting point of 105 to 107 °C. `Cc1cc(SC2=C(O)C[C@@](CCc3cccc(O)c3)(C3CCCC3)OC2=O)c(C(C)(C)C)cc1CO` showed a melting point of 128 to 132 °C. `Cc1ccc(-c2cc(C(F)(F)F)nn2-c2ccc(S(=O)(=O)NOC(C)C(=O)O)cc2)cc1` (single isomer, unassigned; (-)) gave a melting point of 158 to 160 °C. Compound `CC(=O)C1CCC2C3CCC4CC=CCC4(C)C3C(N)CC12C` (stereo not given) has a melting point of 127 to 129 °C. `COc1cc2c(Nc3ccc(Cl)cc3F)ncnc2cc1OCCCC(=O)N1CCN(C)CC1` showed a melting point of 248 to 250 °C. `Cn1nc(N)nc1NCCCOc1cccc2c(N3CCOCC3)nccc12` showed a melting point of 178 to 180 °C. `CCOC(=O)c1cn(Cc2ccc(Oc3ccccc3)cc2)nc1OCc1nc(-c2ccccc2)oc1C` gave a melting point of 96 to 97 °C. In the case of `CN(C)Cc1ccc(CSCCNC(=C[N+](=O)[O-])NCCCCCCCCCCCCNC(=C[N+](=O)[O-])NCCSCc2ccco2)o1`, the melting point is reported as 69 to 72 °C. With `COc1ccc(CCNC(=O)COCCC(=O)NCCc2ccccc2)cc1OC` the melting point was 108 to 110 °C. With `COC(=O)C1CCC(c2csc(NC(=N)N)n2)C1` (stereo not given) the melting point was 124 to 126 °C. With `Cc1nccn1-c1nc(-c2ccc(Cl)cc2)c(CCC2=NCCO2)o1` the melting point was 119 to 120 °C. Compound `COc1cc(O)c(CN2CCc3cc(O)ccc3C2)c(OC)c1` has a melting point of 109 to 112 °C. In the case of `CCOc1cc2cc(C(=O)O)sc2cc1OCC`, the melting point is reported as 243 to 245 °C. `CSc1nnc(C(O)(c2ccc(Cl)cc2)c2ccc3nc(C)cc(-c4cccc(Cl)c4)c3c2)n1C` (stereo not given) showed a melting point of 142 °C. With `CC(C)CC(C=O)NC(=O)C(Cc1c[nH]cn1)NC(=O)C1Cc2c([nH]c3ccccc23)CN1C(=O)OCc1ccccc1` (stereo not given) the melting point was 126 to 130 °C. In the case of `O=C1C(=Cn2ccnc2)c2ccccc2N1c1ccccc1`, the melting point is reported as 158 to 161 °C. Work on `Fc1ccc(F)c(CC2CCN([C@H]3CC[C@H](c4ccc5c(c4)OCO5)CC3)CC2)c1` yielded a melting point of 96 to 97 °C. Compound `COC(=O)C(C)NC(=O)CCc1ccc(C(=O)CCl)cc1` (stereo not given) has a melting point of 122 to 124 °C. With `CCOC(=O)c1ccc(C#Cc2ccc(C)cc2)c(OC)c1` the melting point was 71 to 73 °C. For `COc1ccc(CNc2nnc(NCCCO)c3ccc(Cl)cc23)cc1Cl`, the melting point was 131 to 138 °C. For `NC(=O)C1CN(Cc2ccccc2)CCN1CCCC(c1ccc(F)cc1)c1ccc(F)cc1` (stereo not given), the melting point was 79.2 °C. In the case of `O=C(O)c1ccccc1Sc1ccc(Cl)c(F)c1`, the melting point is reported as 231 to 232 °C. Compound `COc1ccccc1Cc1cnc(NCCSCc2nc[nH]c2C)[nH]c1=O` has a melting point of 163 to 167 °C. Compound `COc1ccc(CN(C)CCCc2ccc(NC(=O)c3cccc4c(=O)c5cccc(OC)c5[nH]c34)cc2)cc1OC` has a melting point of 180 °C. For `CCCCCCCCCCCCCCCCCCOc1cc(N)cc(NC(C)=O)c1`, the melting point was 115 to 117 °C. For `CN(C)c1ccc(NC(=O)CCC2(c3ccc(Cl)cc3)Nc3cccnc3N2)cc1` (stereo not given), the melting point was 216 to 218 °C. Compound `CC12CCC3c4ccc(C(=O)O)cc4CCC3C1CCC2C(=O)Cc1ccccc1` (stereo not given) has a melting point of 146 to 150 °C. `CCCCC(=O)OC1C(O)C(CO)OC1n1cnc2c(OC)nc(N)nc21` (stereo not given) showed a melting point of 83 to 86 °C. Work on `N#Cc1ccccc1COc1cccc(Cl)c1` yielded a melting point of 56 °C. For `O=C(O)C(=O)c1ccc(OC/C=C/c2ccc3ccccc3c2)cc1`, the melting point was 142 to 143 °C. Work on `OCC1OC(n2cnc3c(Nc4ccc(Cl)cc4)ccnc32)C(O)C1O` (stereo not given) yielded a melting point of 215 °C. `Brc1ccc2sc(-c3ccccc3)c(N3CCN(Cc4ccccc4)CC3)c2c1` gave a melting point of 156 to 157 °C. Work on `CS(=O)(=O)c1ccc(-c2oc(CO)cc(=O)c2Oc2ccc(F)cc2)cc1` yielded a melting point of 206 °C. `COc1ccc(-c2nc(N)ncc2-c2ccc(=O)n(C)n2)cc1` showed a melting point of 259 °C. Compound `COc1ccc2[nH]c(SCc3cc(N4CCOCC4)c(F)cn3)nc2c1` has a melting point of 142 to 144 °C. `Cc1ccc(S(=O)(=O)N(Cc2ccccc2)N(C)C(=O)C2CC(S)CN2S(=O)(=O)c2ccc3ccccc3c2)cc1` (stereo not given) showed a melting point of 82.5 °C. `CCc1nc2c(Cl)nc(C)cc2n1-c1ccc(CCNC(=O)NS(=O)(=O)c2ccc(C)cc2)cc1` gave a melting point of 163 °C. In the case of `CNC(N)=Nc1nc(-c2cccc(CNC(C)=O)n2)cs1`, the melting point is reported as 181 °C. For `COC(=O)Cc1ccc(Oc2ccc(S(C)(=O)=O)cc2)cc1`, the melting point was 93 to 98 °C. With `CC(=O)ONC(=N)c1ccc(-c2ccc(-c3ccc(C(=N)NOC(C)=O)cc3C)o2)nc1` the melting point was 226 to 229 °C.
